“Also recorded” adds a separate entry of the source.
Experiments:
[1] = Tigecycline steady-state serum pharmacokinetics, alone and with warfarin; format: in vivo, human (healthy subjects)
Protocol: Blood tubes for tigecycline analysis are placed immediately on ice until a clot forms.
Thus, the peak concentration (Cmax) and the time to peak concentration (tmax) are taken directly from the observed data. […] Systemic clearance (Cl) is calculated as dose/AUC, and it is presented both corrected and uncorrected for body weight.

[2] = Safety in healthy subjects of the drug interaction study; format: in vivo, human (healthy subjects); details: single 25-mg oral warfarin alone, multiple 50-mg IV tigecycline, and combined
Excerpt: (§1) This is an open-label, nonrandomized, inpatient/outpatient, 2-period, 2-treatment study performed with healthy subjects at a single investigational site.

[3] = for plasma concentrations following tigecycline coadministration: versus warfarin 25 mg alone, FIG. 1, FIG. 2; for increase of exposure (AUC): warfarin given with a therapeutic regimen of tigecycline
Protocol: as §1
The tubes are centrifuged within 15 minutes of collection at approximately 1000 g for about 10 minutes. The separated plasma is then transferred to a watertight, labeled polypropylene tube and stored frozen in an upright position at −70° C. or colder until shipped.
The apparent terminal-phase disposition rate constant (λz) is estimated by a log-linear regression of the last 2 to 5 observed serum concentrations that are determined to be in the log-linear elimination phase by visual inspection. […] The area under the concentration-time curve (AUCT) to the last observable concentration (CT) at time T is calculated by using the log-trapezoidal rule for decreasing concentrations and the linear-trapezoidal rule for increasing concentrations, and the total AUC is estimated by AUC=AUCT+CT/λz. The oral-dose clearance (Cl/F) is calculated as dose/AUC, and the apparent terminal-phase volume of distribution (Vz/F) is estimated as Vz/F═[Cl/F]/λz.

[4] = system: international normalized ratio (INR); details: in vivo; cited from earlier work
[5] = combination versus warfarin alone
[6] = single 25-mg oral dose of warfarin, Mean ± SD

SMILES: CN(C)c1cc(NC(=O)CNC(C)(C)C)c(O)c2c1C[C@H]1C[C@H]3[C@H](N(C)C)C(O)=C(C(N)=O)C(=O)[C@@]3(O)C(O)=C1C2=O [Tigecycline, (4S,4aS,5aR,12aS)-9-[2-(tert-butylamino)acetamido]-4,7-bis(dimethylamino)-1,4,4a,5,5a,6,11,12a-octahydro-3,10,12,12a-tetrahydroxy-1,11-dioxo-2-naphthacenecarboxamide]
- mean steady-state systemic clearance and exposure (Cmax, C12h, AUC) versus monotherapy mean values ([1]; following coadministration of warfarin): ≤ 10%
- Tmax ([1]; human, intravenous, 50 mg, tigecycline in serum, steady state, Mean ± SD): 30 min
- AUC(0-t) ([1]; human, intravenous, 50 mg, tigecycline in serum, steady state, Mean ± SD, read-out: AUC0-12 h): 2100 ± 514 ng·h/mL
- concentration at 12 h ([1]; human, intravenous, 50 mg, tigecycline in serum, steady state, Mean ± SD, read-out: C12 h): 109 ± 28 ng/mL
- Cmax ([1]; human, tigecycline in serum, steady state, 50 mg IV every 12 h, Mean ± SD): 886 ± 202 ng/mL
- systemic clearance ([1]; tigecycline intravenous clearance, steady state, Mean ± SD): 5.17 ± 1.2 mL/min/kg
- safety-related concerns [2]: No safety-related concerns
- mean INR AUC0-[…] following the combination treatment (prothrombin time (INR); [5]): unchanged
- mean INRmax lower following the combination treatment (prothrombin time (INR); [5]): 10%
- effect on warfarin's anticoagulant profile (measured by INR) (prothrombin time (INR); therapeutic regimen of tigecycline with warfarin): does not significantly alter; also recorded: did not significantly alter
- effect on oral-dose clearance of R-warfarin and S-warfarin ([3]; coadministration of the therapeutic regimen of tigecycline): significantly decreased

SMILES: CC(=O)CC(c1ccccc1)c1c(O)c2ccccc2oc1=O (racemic) [Warfarin, 3-(α-acetonylbenzyl)-4-hydroxycoumarin]
- safety-related concerns [2]: No safety-related concerns
- INR AUC0-[…] (prothrombin time (INR); [6]): 216 ± 14 h
- INRmax (prothrombin time (INR); [6]): 1.8 ± 0.3
- tmax (time to maximum INR value) (prothrombin time (INR); [6]): 1800 ± 540 min
- R-warfarin AUC ([3]; human, in vivo, po): 73000 ± 18000 ng·h/mL
- R-warfarin Cl/F ([3]; human, in vivo, po): 0.0717 ± 0.013 mL/min/kg
- S-warfarin AUC ([3]; human, in vivo, po): 47000 ± 18000 ng·h/mL
- S-warfarin Cl/F ([3]; human, in vivo, po): 0.117 ± 0.0317 mL/min/kg

SMILES: CN(C)c1ccc(O)c2c1C[C@H]1C[C@H]3[C@H](N(C)C)C(O)=C(C(N)=O)C(=O)[C@@]3(O)C(O)=C1C2=O [minocycline]
- compatibility with warfarin [4]: demonstrated incompatibility

SMILES: CC(=O)C[C@H](c1ccccc1)c1c(O)c2ccccc2oc1=O [R-warfarin]
- plasma concentrations following tigecycline coadministration [3]: higher
- increase of exposure (AUC) [3]: 68%

SMILES: CC(=O)C[C@@H](c1ccccc1)c1c(O)c2ccccc2oc1=O [S-warfarin]
- plasma concentrations following tigecycline coadministration [3]: higher
- increase of exposure (AUC) [3]: 29%

Reference: US20060270638A1 (Wyeth, priority 2005, published 2006)
